Experimental data from patent publication US10314819B2, “Solid state forms of Eluxadoline” (TEVA PHARMACEUTICALS INTERNATIONAL GMBH, priority 2015, dated 2019).
Like-named read-outs stand apart in the source and are kept apart here.

Assays:
Assay type in all cases: physicochemical
[1] = Specific surface area (SSA), BET nitrogen
Method: Specific Surface Area (SSA) measurements (Bet Nitrogen) were determined using a Micromeritics ASAP 2000, specific surface area analyzer. Samples were subjected to the BET nitrogen adsorption analysis to determine the specific surface of the samples.
Sample tube: 10 cc bulb with ½″ stem
Sample mass: Approximately ½ full cell
Sample preparation: Degassing with nitrogen
Outgassing conditions: 40° C. (30 min)
Isothermal collection point: 20 adsorption points, in the range 0-1 P/P0
Isothermal data analysis range: 5 point BET in the range 0.05-0.20 P/P0
Equilibration interval: 5 s
Equilibration time out: 600 s

[2] = Thermal stability, heating in a vacuum dryer at 50° C. and 100° C. (XRPD, HPLC); settings: for XRPD / HPLC/Area % (start: 99.88): vacuum dryer
Method: Samples of Eluxadoline alpha (5 g) were subjected to heating in a vacuum dryer at 50° C. and 100° C., for different periods of time.

[3] = Texture analysis / density at 0.2 MPa; settings: 200 mg sample compressed in steel mould
Method: A simple and low sample consuming method for evaluation of the packing density of powders were obtained as compression profiles under low pressures using a die and a flat-faced punch fitted on a TA-XTplus Texture analyser (Stable Micro Systems Ltd., Godalming, UK). The small amount of 200 mg of sample is compressed in a steel mould (with the rate of displacement 0.03 mm/s). Also, a cyclic procedure (similar to tapping) was performed at maximal compressive displacement 0.5 mm, then retracting, relaxation for 15 s and then repeated compressive steps (altogether up to 20 steps).

[4] = % weight loss / water content (TGA, KF) after storage at various relative humidity; settings: for % weight loss/water cont. - after 1 M, TGA: TGA up to 190° C.
Method: (§1) The obtained amorphous form was stored at various conditions, and the PXRD was analyzed after 3 and 7 days:
(§2) The obtained form alpha was stored at various conditions, and the PXRD was analyzed after 3 and 8 days:
(§3) The obtained amorphous form was stored at various conditions of relative humidity, and the PXRD was obtained after 1M (Table 4):
(§4) The obtained amorphous form was stored at various conditions, and the PXRD was obtained after 2M (Table 5):
(§5) XRPD pattern is shown in FIG. 16; SEM image is shown in FIG. 17; DSC thermogram is shown in FIG. 21 and TGA thermogram is shown in FIG. 22. The obtained form alpha was stored at various conditions, and the PXRD was obtained after 8, 14, and 21 days (Table 6): […]

[5] = Polymorph stability on storage at various relative humidity (PXRD)
Method: Sample after being powdered in a mortar and pestle is applied directly on a silicon plate holder. The X-ray powder diffraction pattern was measured with Philips X'Pert PRO X-ray powder diffractometer, equipped with Cu irradiation source=1.54184 Å(Ångström), X'Celerator (2.022° 2θ) detector. Scanning parameters: angle range: 3-40 deg., step size 0.0167, time per step 37 s, continuous scan.
as §1
The obtained pure amorphous form was stored at various conditions, and the PXRD was analyzed after 3 and 7 days:
as §2, §3, §4, §5

[6] = Dissolution in 50 mM phosphate buffer pH = 7.4 at 37° C.; settings: 50 mM phosphate buffer pH = 7.4, 37° C.
Method: Samples were prepared and analysed in duplicate. About 20 mg of each sample were weighed into 500 ml Erlenmeyer flask, 200 ml of 50 mM phosphate buffer pH=7.4, previously heated to 37° C. were added and flasks were shaken at 110 rpm for 60 minutes at 37±0.2° C. in an incubator shaker. 3 ml aliquots were taken at 5, 10, 20, 30, 45 and 60 min, filtered through 0.45 μm Chromafil Xtra RC 45/25 syringe filter and analysed by UV/VIS spectrometer (absorbance at 203 nm).
The measurement was performed using the following instruments: • pH/Ion meter PHM 240, MeterLab, Radiometer Analytical • Incubator shaker Innova 4080, New Brunswick Scientific, 19 mm diameter circular orbit • UV/VIS spectrometer Varian Cary 50 Bio, 1 mm quartz cell Results of Eluxadoline samples dissolution in 50 mM phosphate buffer pH=7.4 are summarized in Table 8 below: […]

[7] = Flow function, FT4 Powder Rheometer, Freeman shear test 9 kPa; settings: PSD/μm 10/60/164
Method: The Flow function was determined by using FT4 Powder Rheometer, Freeman FT4 instrument, and standard Freeman shear test—9 kPa (using small cell 1 ml), according to method below:
1. Compact to 9 kPa for 60 s
2. Pre shear hold 7 kPa for 16 s
3. Shear test at 7 kPa (Shear at 18°/min for 10°, auto detected peak torque yes)
4. Pre shear hold 6 kPa for 16 s
5. Shear test at 6 kPa (Shear at 18°/min for 10°, auto detected peak torque yes)
6. Pre shear hold 5 kPa for 16 s
7. Shear test at 5 kPa (Shear at 18°/min for 10°, auto detected peak torque yes)
8. Pre shear hold 4 kPa for 16 s
9. Shear test at 4 kPa (Shear at 18°/min for 10°, auto detected peak torque yes)
10. Pre shear hold 3 kPa for 16 s
11. Shear test at 3 kPa (Shear at 18°/min for 10°, auto detected peak torque yes)

## COc1ccc(CN(C(=O)[C@@H](N)Cc2c(C)cc(C(N)=O)cc2C)[C@@H](C)c2nc(-c3ccccc3)c[nH]2)cc1C(=O)O [Eluxadoline alpha form, Eluxadoline]
[1]; listed as Eluxadoline form alpha
  SSA: about 9.63 m^2/g
[2]; 50 ° C., 1 h
  XRPD: alpha
[2]; 50 ° C., 2 h
  XRPD: alpha
[2]; 50 ° C., 3 h
  XRPD: alpha
  HPLC/Area % (start: 99.88): 99.91 Area %
[2]; 100 ° C., 1 h
  XRPD: alpha
[2]; 100 ° C., 2 h
  XRPD: alpha
[2]; 100 ° C., 3 h
  XRPD: alpha
  HPLC/Area % (start: 99.88): 99.91 Area %
[2]; vacuum dryer at 50° C. and 100° C., different periods of time
  stability by XRPD and HPLC on heating: stable

## COc1ccc(CN(C(=O)[C@@H](N)Cc2c(C)cc(C(N)=O)cc2C)[C@@H](C)c2nc(-c3ccccc3)c[nH]2)cc1C(=O)O [Eluxadoline alpha-lower particle size, Eluxadoline]
[3]
  Density at 0.2 MPa: 0.5190 mg/mm^3

## COc1ccc(CN(C(=O)[C@@H](N)Cc2c(C)cc(C(N)=O)cc2C)[C@@H](C)c2nc(-c3ccccc3)c[nH]2)cc1C(=O)O [Example 10, Eluxadoline]
[4]; 0% RH, 7 days
  % weight loss/water cont. - after 7 days, TGA: TGA-7.96%
[4]; 20% RH, 7 days
  % weight loss/water cont. - after 7 days, KF: 9.01%
  % weight loss/water cont. - after 7 days, TGA: 7.96%
[4]; 40% RH, 7 days
  % weight loss/water cont. - after 7 days, KF: 9.11%
  % weight loss/water cont. - after 7 days, TGA: 8.15%
[4]; 60% RH, 7 days
  % weight loss/water cont. - after 7 days, KF: 9.91%
  % weight loss/water cont. - after 7 days, TGA: 8.88%
[4]; 80% RH, 7 days
  % weight loss/water cont. - after 7 days, KF: 13.30%
  % weight loss/water cont. - after 7 days, TGA: 11.88%
[4]; 100% RH, 7 days
  % weight loss/water cont. - after 7 days, KF: 15.69%
  % weight loss/water cont. - after 7 days, TGA: 15.03%
[4]; As is
  % weight loss/water cont. - after 7 days, TGA: TGA-5.97%
[5]; 0% RH, 7 days
  PXRD results - after 7 days: amorphous
[5]; 20% RH, 7 days
  PXRD results - after 7 days: amorphous
[5]; 40% RH, 7 days
  PXRD results - after 7 days: amorphous
[5]; 60% RH, 7 days
  PXRD results - after 7 days: amorphous
[5]; 80% RH, 7 days
  PXRD results - after 7 days: amorphous
[5]; 100% RH, 7 days
  PXRD results - after 7 days: amorphous
[5]; As is
  PXRD results - after 7 days: amorphous

## COc1ccc(CN(C(=O)[C@@H](N)Cc2c(C)cc(C(N)=O)cc2C)[C@@H](C)c2nc(-c3ccccc3)c[nH]2)cc1C(=O)O [Example 11, Eluxadoline]
[5]; 0% RH, 7 days
  PXRD results after 7 days: amorphous
[5]; 20% RH, 7 days
  PXRD results after 7 days: amorphous
[5]; 40% RH, 7 days
  PXRD results after 7 days: amorphous
[5]; 60% RH, 7 days
  PXRD results after 7 days: amorphous
[5]; 80% RH, 7 days
  PXRD results after 7 days: amorphous
[5]; 100% RH, 7 days
  PXRD results after 7 days: amorphous

## COc1ccc(CN(C(=O)[C@@H](N)Cc2c(C)cc(C(N)=O)cc2C)[C@@H](C)c2nc(-c3ccccc3)c[nH]2)cc1C(=O)O [Example 12, 5-(((S)-2-amino-3-(4-carbamoyl-2,6-dimethylphenyl)-N—((S)-1-(4-phenyl-1H-imidazol-2-yl)ethyl)propanamido)methyl)-2-methoxybenzoic acid]
[4]; as is, TGA up to 121° C.
  % weight loss after 8 days by TGA: TGA* = 1.29%
[5]; 0% RH
  PXRD results after 8 days: alpha
[5]; 20% RH
  PXRD results after 8 days: alpha
[5]; 40% RH
  PXRD results after 8 days: alpha
[5]; 60% RH
  PXRD results after 8 days: alpha
[5]; 80% RH
  PXRD results after 8 days: alpha

## COc1ccc(CN(C(=O)[C@@H](N)Cc2c(C)cc(C(N)=O)cc2C)[C@@H](C)c2nc(-c3ccccc3)c[nH]2)cc1C(=O)O [Example 20]
[6]; 5 min
  % dissolved: 63.21%
[6]; 10 min
  % dissolved: 81.56%
[6]; 20 min
  % dissolved: 91.46%
[6]; 30 min
  % dissolved: 93.81%
[6]; 45 min
  % dissolved: 94.48%
[6]; 60 min
  % dissolved: 94.50%
[4]; 0% RH, 1 M
  % weight loss/water cont. - after 1 M, TGA: TGA-7.42%
[4]; 20% RH, 1 M
  % weight loss/water cont. - after 1 M, TGA: TGA-8.42%
[4]; 40% RH, 1 M
  % weight loss/water cont. - after 1 M, TGA: TGA-9.34%
[4]; 60% RH, 1 M
  % weight loss/water cont. - after 1 M, TGA: TGA-10.36%
[4]; 80% RH, 1 M
  % weight loss/water cont. - after 1 M, TGA: TGA-12.89%
[4]; 100% RH, 1 M
  % weight loss/water cont. - after 1 M, TGA: TGA-15.23%
[4]; As is
  % weight loss/water cont. - after 1 M, TGA: TGA-5.79%
[5]; 0% RH, 1 M
  PXRD results - after 1 M: amorphous
[5]; 20% RH, 1 M
  PXRD results - after 1 M: amorphous
[5]; 40% RH, 1 M
  PXRD results - after 1 M: amorphous
[5]; 60% RH, 1 M
  PXRD results - after 1 M: amorphous
[5]; 80% RH, 1 M
  PXRD results - after 1 M: amorphous
[5]; 100% RH, 1 M
  PXRD results - after 1 M: amorphous
[5]; As is
  PXRD results - after 1 M: amorphous

## COc1ccc(CN(C(=O)[C@@H](N)Cc2c(C)cc(C(N)=O)cc2C)[C@@H](C)c2nc(-c3ccccc3)c[nH]2)cc1C(=O)O [Example 21]
[1]
  SSA: 1.243 m^2/g
[4]; 0% RH, 2 M
  % weight loss/water cont. after 2 M KF: 8.56%
[4]; 20% RH, 2 M
  % weight loss/water cont. after 2 M KF: 9.17%
[4]; 40% RH, 2 M
  % weight loss/water cont. after 2 M KF: 10.50%
[4]; 60% RH, 2 M
  % weight loss/water cont. after 2 M KF: 11.93%
[4]; 80% RH, 2 M
  % weight loss/water cont. after 2 M KF: 14.15%
[4]; 100% RH, 2 M
  % weight loss/water cont. after 2 M KF: 14.54%
[4]; As is
  % weight loss/water cont. after 2 M KF: 4.42%
[5]; 0% RH, 2 M
  PXRD results - after 2 M: amorphous
[5]; 20% RH, 2 M
  PXRD results - after 2 M: amorphous
[5]; 40% RH, 2 M
  PXRD results - after 2 M: amorphous
[5]; 60% RH, 2 M
  PXRD results - after 2 M: amorphous
[5]; 80% RH, 2 M
  PXRD results - after 2 M: amorphous
[5]; 100% RH, 2 M
  PXRD results - after 2 M: amorphous
[5]; As is
  PXRD results - after 2 M: amorphous
[7]
  Classification of powder flowability after Jenike: Free-flowing (10 < FF)
[7]; shear test 9 kPa
  Flow Function, (FF): 10.08

## COc1ccc(CN(C(=O)[C@@H](N)Cc2c(C)cc(C(N)=O)cc2C)[C@@H](C)c2nc(-c3ccccc3)c[nH]2)cc1C(=O)O [amorphous Eluxadoline, Eluxadoline]
[5]; RH 0-10% for a 7 day period
  changes of samples exposed to RH (stability of amorphous form): did not show any changes
